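The compound was tested at five concentrations on cells cultured in 96-well plates, with a 48-hour exposure period. At the TGI there is no net growth.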
Tests used:
Assay in all cases: NCI-60 cell line screen, 48 h
[1] = test system: A498 renal
[2] = test system: ACHN renal
[3] = test system: CCRF-CEM leukemia
[4] = test system: HOP-62 NSCLC
[5] = test system: K-562 leukemia
[6] = test system: LOX IMVI melanoma
[7] = test system: MALME-3M melanoma
[8] = test system: NCI-H226 lung
[9] = test system: SR leukemia
[10] = test system: SW-620 colon
[11] = test system: UACC-257 melanoma
[12] = test system: MCF7 breast
[13] = test system: MDA-MB-231 breast
[14] = test system: MDA-MB-435
[15] = test system: NCI/ADR-RES ovarian
[16] = test system: MDA-N

Row | Compound | TGI [1] [µM] | TGI [2] [µM] | TGI [3] [µM] | TGI [4] [µM] | TGI [5] [µM] | TGI [6] [µM] | TGI [7] [µM] | TGI [8] [µM] | TGI [9] [µM] | TGI [10] [µM] | TGI [11] [µM] | TGI [12] [µM] | TGI [13] [µM] | TGI [14] [µM] | TGI [15] [µM] | TGI [16] [µM]
1 | COc1ccccc1-n1c(N)c2c(C)c(-c3ccccc3)[nH]c2nc1=S | > 100 | > 100 | > 100 | > 100 | > 100 | > 100 | > 100 | > 100 | > 100 | > 100 | > 100 |  |  |  |  | 
2 | COc1cc(C2c3cc4c(cc3OC(NCCc3ccccc3)C2C)OCO4)cc(OC)c1OC (centres undefined) |  | > 51.8 | > 62.3 | > 70.3 | 16.9 | 15.6 | 17.6 | 7.43 |  | > 100 | > 85.5 | 15.4 | 1.02 | 2.18 | > 22.3 | 
3 | Cc1nc(N)c(-c2ccccc2)s1 | > 100 | > 100 | > 73.9 | > 100 | > 100 | > 94.4 | > 100 | > 100 |  | > 45.6 | > 96.1 |  |  |  |  | 
4 | COc1cc(OC)c2c(=O)c3c([N+](=O)[O-])cccc3n(C)c2c1 | > 100 | > 100 | > 100 | > 100 | > 100 | > 100 | > 100 | > 100 | > 100 | > 100 | > 100 |  |  |  |  | 
5 | CC/C(=N/O)c1ccc2[nH]c3c(C)cc([N+](=O)[O-])c(C)c3c2c1 |  | > 100 | > 100 | > 100 | > 100 | > 100 | > 100 | > 100 | > 100 | > 100 | > 100 |  |  |  |  | 
6 | Cc1cc(S(=O)(=O)NC2=NCCN2Cc2ccccc2)c(S)cc1Cl |  | > 100 | > 100 | > 100 | > 100 | > 100 | > 100 | > 100 |  | > 100 | > 100 | > 100 | > 100 | > 100 | > 100 | > 100
7 | CCCCNC(=NCc1ccccc1)NC#N | > 100 | > 100 | > 100 | > 100 |  | > 100 | > 100 | > 100 | > 100 | > 100 |  |  |  |  |  | 
8 | N#C/C(=C\c1cc(O)ccc1O)C(N)=O | > 100 | > 100 | 53.9 | > 100 | > 100 |  | > 100 | 95.4 |  | > 100 | > 100 |  |  |  |  | 
9 | Cc1ccc(NC(=O)CSc2nnc(Cc3ccccc3)o2)cc1 | > 100 | > 100 | > 100 | > 100 | > 100 | > 100 | > 100 | > 100 |  | > 100 | > 100 |  |  |  |  | 
10 | CCOC(=O)c1nc2ccc(C(F)(F)F)cc2nc1Nc1ccc(F)cc1 | > 100 | > 100 |  | > 100 | > 100 | > 100 | > 100 |  |  | > 100 | > 100 | > 100 |  | > 100 | > 100 | > 100
11 | COC(=O)n1c(C)c(C=O)c2ccc(OC)cc21 |  | > 100 | > 100 | 60.8 | > 100 | 84.5 | > 100 |  | > 100 |  | > 100 | 88.2 | > 100 | 47.2 | > 100 | 
12 | CCCCCCCCCCCCCCCCc1c(C(=O)OC)nc(NN)[nH]c1=O | > 50 | > 50 | > 50 | > 50 | > 50 | > 50 | > 50 |  |  | > 50 | > 50 |  |  |  |  | 
13 | CCOC(=O)C(/C(=N\NC(=O)OC)C(=O)Nc1cc(OC)ccc1OC)c1cnc2ccccc2n1 (centres undefined) | > 100 | > 100 | > 100 | > 100 | > 100 | > 100 | > 100 | > 100 | > 100 | > 100 | > 100 |  |  |  |  | 
14 | COc1ccc2c(c1)[n+](=O)c(C(=O)C/C(=N/NC(=O)C[N+](C)(C)C)C(=O)Nc1cccc(C)c1C)c(C)n2O | > 100 | > 100 |  | > 100 | > 100 |  | > 100 | > 100 |  | > 100 | > 100 |  |  |  |  | 
15 | CCN(CC)CCCNc1ccc([N+](=O)[O-])c2nc3ccc(OC)cc3c(N)c12 | > 10 | > 10 | 5.71 | > 10 | 4.79 | 3.37 | > 10 | > 10 | 4.05 | 3.11 | > 10 | > 6.17 | 3.29 | 3.12 | > 6.02 | 
16 | CCOC(=O)CCC(NC(=O)c1ccc(N=Cc2nc3ccccc3nc2-c2ccccc2)cc1)C(=O)OCC (centres undefined) | > 100 | > 100 | > 100 | > 100 | > 100 | > 100 | > 100 | > 100 | > 100 | > 100 | > 100 |  |  |  |  | 
17 | O=C(Cc1ccc([N+](=O)[O-])c([N+](=O)[O-])c1CC(=O)C(=O)Nc1cc(Cl)ccc1Cl)C(=O)Nc1cc(Cl)ccc1Cl | > 100 | > 100 | > 100 | > 100 | > 100 | 65.9 | > 100 | > 100 | > 100 | > 100 | > 100 |  |  |  |  | 
18 | COc1cc2c(cc1O)CN1CCC23C=C[C@@H](O)CC13 (some centres undefined) | > 100 | > 100 | 81.3 | > 100 | > 100 | > 100 | > 100 | > 100 | > 100 | > 100 | > 100 |  |  |  |  | 
19 | Cc1nc(-n2nc(-c3ccccc3)cc2-c2ccccc2)sc1C(=O)/C=C/c1ccc(Cl)c(Cl)c1 |  | > 100 | 69.7 | > 100 | 63.7 | 27.5 | > 100 | 87.6 | 76.8 | 57.3 | > 100 |  |  |  |  | 

Row | Compound | TGI [1] [µM] | TGI [2] [µM] | TGI [3] [µM] | TGI [4] [µM] | TGI [5] [µM] | TGI [6] [µM] | TGI [7] [µM] | TGI [8] [µM] | TGI [9] [µM] | TGI [10] [µM] | TGI [11] [µM] | TGI [12] [µM] | TGI [13] [µM] | TGI [14] [µM] | TGI [15] [µM] | TGI [16] [µM]
20 | CCN(CC)CC(=O)NC1c2ccccc2Oc2c(C)cccc21 (centres undefined) |  | > 100 | > 100 | > 100 | > 100 | > 100 |  | > 100 | > 100 | > 100 | > 100 |  |  |  |  | 
21 | [N-]=[N+]=Nc1ccc2c(c1)Sc1ccccc1N2CCCCN1CCN(Cc2ccc(C(=O)c3ccc(CSCC(N)C(=O)O)cc3)cc2)CC1 (centres undefined) | 37.7 | > 100 | > 100 | 57.3 | 44.9 | 24.9 |  | 35.6 |  | 4.79 | 69.2 | 54.4 | 50.9 | 3.16 |  | 35.4
22 | C/C(=N/NC(=O)C[n+]1ccccc1)C(CN(CC(C)C)CC(C)C)C(=O)Nc1ccc(C)cc1C (centres undefined) | 92.9 | > 100 | > 100 | > 100 | > 100 |  | > 100 |  | > 100 | > 100 | > 100 |  |  |  |  | 
23 | O=C(O)C1CCCCN1C(=O)Cc1c[nH]c2ccccc12 (centres undefined) |  | > 100 | > 100 | > 100 | > 100 | > 100 | > 100 | > 100 |  | > 100 | > 100 | > 100 | > 100 | > 100 | > 100 | > 100
24 | CN(C)/C=N\c1nncc2[nH]cnc12 | > 100 | > 100 | > 100 | > 100 | > 100 | > 100 | > 100 | > 100 |  | > 100 | > 100 | > 100 |  | > 100 | > 100 | > 100
25 | C#CCNC(=O)NCCCCC(NC(C)=O)C(=O)NCc1ccccc1 (centres undefined) | > 100 | > 100 | > 100 | > 100 | > 100 | > 100 | > 100 | > 100 | > 100 | > 100 | > 100 |  |  |  |  | 
26 | C[C@@H]1O[C@]2(O)[C@@H]3CCCN3S(=O)(=O)CCN2C1=O | > 100 | > 100 | > 100 | > 100 | > 100 | > 100 | > 100 | > 100 | > 100 | > 100 | > 100 |  |  |  |  | 
27 | O=C(N/N=C(/c1nc2ccc([N+](=O)[O-])cc2[nH]c1=O)C(O)c1ccc([N+](=O)[O-])cc1)c1ccncc1 (centres undefined) | > 100 | > 100 | > 100 | > 100 | > 100 | > 100 | > 100 | > 100 | > 100 | > 100 | > 100 |  |  |  |  | 
28 | CCc1[nH]c(=O)c2oc3cc4ccccc4cc3c2c1C(=O)O |  | > 10 |  |  |  | > 10 | > 10 | > 10 | > 10 | > 10 | > 10 |  | > 10 |  | > 10 | 
29 | CCOC(=O)c1nc2ccccc2nc1Oc1ccc(C#N)cc1 | > 100 | > 100 | > 100 | > 100 | > 100 | > 100 | > 100 | > 100 |  | > 100 | > 100 | > 100 |  | > 100 | > 100 | > 100
30 | CCOC(=O)c1cnc2c(ccc3[nH]cccc32)c1=O | > 100 | > 100 | > 100 | > 100 | > 100 | > 100 | > 100 |  | > 100 | > 100 | > 100 |  |  |  |  | 
31 | COc1cc(C2C(C(=O)Nc3ccc([N+](=O)[O-])cc3)=C(C)NC(C)=C2C(=O)Nc2ccc([N+](=O)[O-])cc2)ccc1O | 99.8 | > 67.2 | > 100 | 35 | 81.6 | 31.5 | 60 | > 63.2 | > 44.1 | 52.3 | 54.6 |  |  |  |  | 
32 | O=C1NC(=S)NC(=O)C1=Cc1ccc(-c2ccccc2)cc1 |  | > 100 | > 100 | > 100 | > 100 | > 100 | > 100 | > 100 |  | > 100 | > 100 | > 100 | > 100 | > 100 | > 100 | > 100
33 | CC12C(=C(C#N)C(=N)N1c1ccc(Cl)c(Cl)c1)C=C(O)CC2SCCS(=O)(=O)O (centres undefined) | > 100 | > 100 | > 100 | > 100 | > 100 | > 100 |  | > 100 | > 100 | > 100 | > 100 |  |  |  |  | 
34 | CCOc1ccc(/C=C(\Cl)c2ccc(OC)cc2)cc1 | > 100 | > 100 | > 100 | > 100 | > 100 |  | > 100 | > 100 | > 100 | > 100 | > 100 |  |  |  |  | 
35 | CC1(C)OCN(c2ccc(S(N)(=O)=O)cc2)Cn2c1nc1ccccc12 | > 100 | > 100 | > 100 | > 100 | > 100 | > 100 | > 100 | > 100 | > 100 | > 100 | > 100 |  |  |  |  | 
36 | CC(C)N(C(=O)C12C3C4C1C1C2C3C41I)C(C)C (centres undefined) | > 100 | > 100 | > 100 |  | > 100 |  | > 100 | > 100 | > 100 | > 100 |  |  |  |  |  | 
37 | C[C@@]1(Cc2ccccc2)C(=O)N2[C@@H](CO)C(c3ccccc3)O[C@]2(C)c2ccccc21 (some centres undefined) |  | > 100 | > 100 | > 100 | > 100 | > 100 |  | > 100 | > 100 | > 100 |  |  |  |  |  | 
38 | Oc1cc(CN2CCOCCOCCOCCOCC2)c(O)cc1CN1CCOCCOCCOCCOCC1 | > 100 | > 59.2 | 44 | > 100 | > 75.2 | 66.4 |  | > 85 | 43.8 | 53.1 | > 100 |  |  |  |  | 

— PubChem BioAssay (NCI)
